Assay results reported in patent publication US10487045B2, “Adamantane derivative and use thereof” (TOHOKU UNIVERSITY, priority 2016, dated 2019).

Assays:
[1] = molecular target: T1, Kir6.2 channel (Mus musculus, UniProt Q61743); assay: CaMKII activation in N2A cells overexpressing Kir6.2 channel (immunoblotting, anti-phosphorylated CaMKII antibody); format: cell-based; conditions: 10 nM, one hour, Kir6.2 channel overexpressing N2A cells; control without compound = 100%
T1 construct: expressed in transfected cells; host or cells: Neuro2A (N2A) cells, transient transfection with pcDNA3.1-Kir6.2 (gift of Dr. Toru Ishizuka, Tohoku University)
T1 sequence (Q61743 1-390): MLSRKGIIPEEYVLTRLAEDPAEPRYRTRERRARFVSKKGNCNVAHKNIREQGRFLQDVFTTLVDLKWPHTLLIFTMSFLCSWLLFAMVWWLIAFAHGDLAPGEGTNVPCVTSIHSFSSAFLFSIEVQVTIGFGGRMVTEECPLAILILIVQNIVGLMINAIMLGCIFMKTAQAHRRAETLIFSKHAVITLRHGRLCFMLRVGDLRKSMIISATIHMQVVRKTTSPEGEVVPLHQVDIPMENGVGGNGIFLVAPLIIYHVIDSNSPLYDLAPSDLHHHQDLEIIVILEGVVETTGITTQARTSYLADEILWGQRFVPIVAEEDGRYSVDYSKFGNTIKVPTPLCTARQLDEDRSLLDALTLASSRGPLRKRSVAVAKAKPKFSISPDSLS
Description: A plasmid vector having cDNA of Kir6.2 channel inserted therein: pcDNA3.1-Kir6.2, was obtained from Dr. Toru Ishizuka (Graduate School of Life Sciences, Tohoku University). The plasmid vector, pcDNA3.1-Kir6.2, was conditioned in accordance with the manual attached to GenElute HP Plasmid Maxiprep Kit (manufactured by Sigma-Aldrich). A culture solution (composition: DMEM culture solution 450 mL containing 50 ml of bovine serum and 100 units of penicillin/streptomycin) of Neuro2A cells (N2A cells, the National Instituted of Biomedical Innovation) cultured in DMEM culture solution (Gibco) was exchanged with Opti-Mem (Gibco)(containing Lipofectamine R2000 (1 μg/1 ml)) containing pcDNA3.1-Kir6.2 (1 μg/μl) conditioned above, and cultured for 5 hours to obtain N2A cells overexpressing Kir6.2 channel. Exchange with the DMEM culture solution was again performed and culture was carried out for two days. Thereafter, memantine (manufactured by Sigma-Aldrich) and the compound of the present invention (n=4 per group) were added in the culture solutions (DMEM, Gibco) so as to obtain a concentration of 10 nM based on the culture solution, and the culture solutions were allowed to stand still for one hour. Thereafter, Kir6.2 channel overexpressing N2A cells were collected and an SDS sample buffer was added to the N2A cells to prepare a suspension. The suspension was subjected to immunoblotting by use of an anti-phosphorylated CaMKII antibody (Fukunaga K et al., J. Biol. Chem. 1992, 267, 22527-22533) as a primary antibody and an anti-rabbit IgG antibody (manufactured by SouthernBiotech) as a secondary antibody (other conditions except the aforementioned antibodies were the same as those employed in ordinary immunoblotting), to investigate activation of CaMKII. As a result, in TP-009, TP-010, TP-011, TP-012, TP-014, TP-015, TP-048, TP-049, TP-050, TP-051, TP-052, TP-053, bands showing a reaction with the antibody against phosphorylated CaMKII were obtained. It was confirmed that activation of CaMKII is enhanced. In FIG. 1, the result of the case (control: c) where a test compound was not added is regarded as 100%. CaMKII activation of the cases containing memantine, TP-009, TP-010, TP-011, TP-012, TP-014, TP-015, TP-048, TP-049, TP-050, TP-051, TP-052, TP-053 (corresponding to M, 9, 10, 11, […], 15, 48, 49, 50, 51, 52 and 53, respectively) were shown in FIG. 1.

[2] = system: APP23 mice; assay: Y-maze method in Alzheimer's disease model mice; format: in vivo; conditions: APP23 mice 12 months old, 1 mg/kg orally once a day for two months
Description: To Alzheimer's disease model mice (APP23 mice, Sturchler-Pierrat et al., Proc. Natl. Acad. Sci. U.S.A. 1997, 94, 13287-13292)(12 months old), TP-014 (1 mg/kg) was orally administered once a day for two months (chronic treatment). […] FIGS. 4a-d show the results of behavior analysis. FIG. 4a and FIG. 4b show attentional function analyzed on WT mice (C57BL/6J, Japan SLC) and APP23 mice (n=5 per group) by an ordinary Y-maze method. […] The Y-maze method is a method of allowing mice to freely walk on three arms for 8 minutes. The arms will be provisionally designated as A, B, C, respectively. A mouse positioned on A will move to B or C (arm). […] The arms to which a mouse moved are recorded in chronological order and the number of times a mouse moves to each of the arms within a predetermined time is counted and determined as “total arm entries”. Of them, the number of the right-answer cases (the case where a mouse consecutively chooses three different arms) was counted and determined as the number of alternating behaviors (“No. of alternation”). The ratio of “No. of alternation” to the number obtained by subtracting 2 from the “total arm entries” is expressed as alternation (%) and used as the normal alternate behavior index (spatial working memory correct answer ratio). […]

[3] = system: APP23 mice; assay: Long-term potentiation (LTP) in hippocampal slices, electrophysiological technique; format: in vivo; conditions: hippocampal slices of APP23 mice chronically treated
Description: FIG. 4e to FIG. 4g show the results of long-term potentiation phenomenon (LTP)(serving as an index of memory formation) analyzed by an electrophysiological technique. The hippocampus in the brain plays an important role in memorization. The hippocampus was cut into slice sections (400 micrometers in thickness). The slice sections were placed in an artificial cerebrospinal fluid (126 mM NaCl, 5 mM KCL, 26 mM NaHCO3, 1.3 mM MgSO4-7H2O, 1.26 mM KH2PO4, 2.4 mM CaCl2-2H2O, 10 mM glucose) saturated with a 95% O2/5% CO2 gas at 34° C. for two hours and recovered. The hippocampal slice sections were transferred to a measuring chamber and the artificial cerebrospinal fluid containing TP-014 was perfused. The activity of the nerve cells when electrical stimulation was applied was recorded and the postsynaptic assembly potential (fEPSP) was measured. Based on them, the degree of LTP improvement was evaluated. Thereafter, an electrical stimulation (100 Hz) was applied to the hippocampus to cause a […] (it is considered that memory is formed by a […] in the hippocampus). It was confirmed that an increase rate of the neuronal excitation decreases in APP23 mice; whereas the increase rate is improved in the mice chronically treated with TP-014.

activation of CaMKII (phosphorylated CaMKII bands) [1]: enhanced
Compound: O=C(N[C@@H](c1ccccc1)[C@H]1[C@H]2C[C@@H]3C[C@](Cl)(C2)C[C@@]1(OC(=O)C(F)(F)F)C3)C(F)(F)F [TP-014, (1S,2R,3S,5S,7S)-5-chloro-2-((R)-phenyl(2,2,2-trifluoroacetamido)methyl)adamantan-1-yl 2,2,2-trifluoroacetate]
attentional function (alternation, Y-maze) [2]: significant attentional function improvement effect
LTP, increase rate of neuronal excitation (fEPSP) after 100 Hz stimulation [3]: improved
